Source: ChEMBL document CHEMBL5715949, “Discovery of a selective irreversible BMX inhibitor for prostate cancer” (ACS Chem Biol, 2013)
Active and inactive are the calls of the source. The rule behind the calls is not given here.

Tests used:
RV-1 [1] = assay: Antiproliferative activity against human RV-1 cells assessed as reduction in cell viability at 500 to 2500 nM incubated for 5 days in presence of gefitinib by CellTiter-Glo assay; assay type: functional, cell-based; conditions: dose 500-2500 nM, time 5.0 day
[2] = biological target: Phosphatidylinositol 5-phosphate 4-kinase type-2 beta (Homo sapiens) (UniProt P78356); assay: Inhibition of PIP5K2B (unknown origin) assessed as remaining activity at 1 uM by Kinome scan method relative to control
[3] = biological target: Serine/threonine-protein kinase MARK1 (Homo sapiens) (UniProt Q9P0L2); assay: Inhibition of MARK1 (unknown origin) assessed as remaining activity at 1 uM by Kinome scan method relative to control
DU-145 = assay: Antiproliferative activity against human DU-145 cells assessed growth inhibition incubated for 2 to 5 days by CellTiter-Glo assay; assay type: functional; conditions: time 2-5 day
[4] = biological target: MAP/microtubule affinity-regulating kinase 4 (Homo sapiens) (UniProt Q96L34); assay: Inhibition of MARK4 (unknown origin) assessed as remaining activity at 1 uM by Kinome scan method relative to control
[5] = Down regulation of BMX protein expression in human RV-1 cells expressing BMX C496S mutant assessed protein expression level at 2.5 uM pre incubated for 4 hrs followed by compound wash out and additon of CHX and measured after 24 hrs by immunoblot analysis (reference value: 1.01 to 1.13); assay type: functional
RV-1 [6] = assay: Antiproliferative activity against human RV-1 cells assessed as reduction in cell viability at 500 to 2500 nM incubated for 5 days in presence of <25 nM MK2206 by CellTiter-Glo assay; assay type: functional, cell-based; conditions: dose 500-2500 nM, time 5.0 day
[7] = biological target: Hormonally up-regulated neu tumor-associated kinase (Homo sapiens) (UniProt P57058); assay: Inhibition of HUNK (unknown origin) assessed as remaining activity at 1 uM by Kinome scan method relative to control
RV-1 [8] = assay: Antiproliferative activity against human RV-1 cells assessed as reduction in cell viability at 500 to 2500 nM incubated for 5 days in presence of Torin1 by CellTiter-Glo assay; assay type: functional, cell-based; conditions: dose 500-2500 nM, time 5.0 day
[9] = biological target: Phosphorylase b kinase gamma catalytic chain, liver/testis isoform (Homo sapiens) (UniProt P15735); assay: Inhibition of PHKG2 (unknown origin) assessed as remaining activity at 1 uM by Kinome scan method relative to control
[10] = biological target: Phosphatidylinositol 5-phosphate 4-kinase type-2 gamma (Homo sapiens) (UniProt Q8TBX8); assay: Inhibition of PIP5K2C (unknown origin) assessed as remaining activity at 1 uM by Kinome scan method relative to control
[11] = biological target: Serine/threonine-protein kinase 10 (Homo sapiens) (UniProt O94804); assay: Inhibition of LOK (unknown origin) assessed as remaining activity at 1 uM by Kinome scan method relative to control
[12] = biological target: Serine/threonine-protein kinase 3 (Homo sapiens) (UniProt Q13188); assay: Inhibition of MST2 (unknown origin) assessed as remaining activity at 1 uM by Kinome scan method relative to control
[13] = biological target: Receptor-interacting serine/threonine-protein kinase 1 (Homo sapiens) (UniProt Q13546); assay: Inhibition of RIPK1 (unknown origin) assessed as remaining activity at 1 uM by Kinome scan method relative to control
[14] = biological target: Serine/threonine-protein kinase STK11 (Homo sapiens) (UniProt Q15831); assay: Inhibition of LKB1 (unknown origin) assessed as remaining activity at 1 uM by Kinome scan method relative to control
[15] = biological target: Serine/threonine-protein kinase PLK2 (Homo sapiens) (UniProt Q9NYY3); assay: Inhibition of PLK2 (unknown origin) assessed as remaining activity at 1 uM by Kinome scan method relative to control
[16] = biological target: Ribosomal protein S6 kinase alpha-6 (Homo sapiens) (UniProt Q9UK32); assay: Inhibition of C-terminal kinase domain RSK4 (unknown origin) assessed as remaining activity at 1 uM by Kinome scan method relative to control
RV-1 [17] = assay: Antiproliferative activity against human RV-1 cells assessed as reduction in cell viability at 500 to 2500 nM incubated for 5 days in presence of MK2206 by CellTiter-Glo assay; assay type: functional, cell-based; conditions: dose 500-2500 nM, time 5.0 day
[18] = biological target: Serine/threonine-protein kinase MARK2 (Homo sapiens) (UniProt Q7KZI7); assay: Inhibition of MARK2 (unknown origin) assessed as remaining activity at 1 uM by Kinome scan method relative to control
[19] = Induction of cell cycle arrest in human RV-1 cells assessed as accumulation of cells at G1 phase at 2.5 uM incubated for 5 days in presence of MK2206 by propidium iodide staining based flow cytometric analysis (reference value: 59.7 %); assay type: functional; conditions: time 5 day
[20] = Inhibition of PI3K/AKT/mTOR signalling pathway in human RV-1 cells assessed as decrease in GSKalpha/beta phosphorylation at 2.5 uM incubated for 4 hrs by immunoblot analysis; assay type: cell-based
[21] = biological target: Phosphatidylinositol 4-kinase beta (Homo sapiens) (UniProt Q9UBF8); assay: Inhibition of PIK4CB (unknown origin) assessed as remaining activity at 1 uM by Kinome scan method relative to control
[22] = biological target: Serine/threonine-protein kinase SBK1 (Homo sapiens) (UniProt Q52WX2); assay: Inhibition of SBK1 (unknown origin) assessed as remaining activity at 1 uM by Kinome scan method relative to control
BaF3 [23] = assay: Antiproliferative activity against mouse BaF3 cells expressing TEL-fused BMX assessed growth inhibition incubated for 2 to 5 days by CellTiter-Glo assay; assay type: functional, cell-based
[24] = biological target: SRSF protein kinase 1 (Homo sapiens) (UniProt Q96SB4); assay: Inhibition of SRPK1 (unknown origin) assessed as remaining activity at 1 uM by Kinome scan method relative to control
[25] = biological target: Casein kinase I isoform delta (Homo sapiens) (UniProt P48730); assay: Inhibition of CSNK1D (unknown origin) assessed as remaining activity at 1 uM by Kinome scan method relative to control
BaF3 [26] = assay: Antiproliferative activity against mouse BaF3 cells expressing TEL-fused BLK assessed growth inhibition incubated for 2 to 5 days by CellTiter-Glo assay; assay type: functional; conditions: time 2-5 day
[27] = biological target: TRAF2 and NCK-interacting protein kinase (Homo sapiens) (UniProt Q9UKE5); assay: Inhibition of TNIK (unknown origin) assessed as remaining activity at 1 uM by Kinome scan method relative to control
[28] = biological target: Serine/threonine-protein kinase mTOR (Homo sapiens) (UniProt P42345); assay: Inhibition of MTOR (unknown origin) assessed as remaining activity at 1 uM by Kinome scan method relative to control
[29] = biological target: Phosphatidylinositol 4,5-bisphosphate 3-kinase catalytic subunit alpha isoform (Homo sapiens) (UniProt P42336); assay: Inhibition of PIK3CA (unknown origin) assessed as remaining activity at 1 uM by Kinome scan method relative to control
[30] = biological target: RAC-gamma serine/threonine-protein kinase (Homo sapiens) (UniProt Q9Y243); assay: Inhibition of AKT3 (unknown origin) assessed as remaining activity at 1 uM by Kinome scan method relative to control
[31] = biological target: Cyclin-dependent kinase 18 (Homo sapiens) (UniProt Q07002); assay: Inhibition of PCTK3 (unknown origin) assessed as remaining activity at 1 uM by Kinome scan method relative to control

Serine/threonine-protein kinase 3 (Homo sapiens), sequence (Q13188 whole entry): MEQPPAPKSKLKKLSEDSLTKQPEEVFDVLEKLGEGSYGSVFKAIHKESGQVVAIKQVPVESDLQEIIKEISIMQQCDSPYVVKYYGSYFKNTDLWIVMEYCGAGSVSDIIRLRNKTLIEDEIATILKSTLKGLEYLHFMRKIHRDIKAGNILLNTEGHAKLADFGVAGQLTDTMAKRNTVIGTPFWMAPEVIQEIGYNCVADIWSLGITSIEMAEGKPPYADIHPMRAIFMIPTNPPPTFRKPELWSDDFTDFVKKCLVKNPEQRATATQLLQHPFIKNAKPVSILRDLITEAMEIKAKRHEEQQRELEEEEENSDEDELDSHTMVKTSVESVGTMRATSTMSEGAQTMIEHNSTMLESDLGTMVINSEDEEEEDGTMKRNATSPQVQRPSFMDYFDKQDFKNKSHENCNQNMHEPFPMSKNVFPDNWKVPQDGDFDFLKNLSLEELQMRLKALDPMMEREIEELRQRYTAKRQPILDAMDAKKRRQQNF
Phosphatidylinositol 5-phosphate 4-kinase type-2 gamma (Homo sapiens), sequence (Q8TBX8 whole entry): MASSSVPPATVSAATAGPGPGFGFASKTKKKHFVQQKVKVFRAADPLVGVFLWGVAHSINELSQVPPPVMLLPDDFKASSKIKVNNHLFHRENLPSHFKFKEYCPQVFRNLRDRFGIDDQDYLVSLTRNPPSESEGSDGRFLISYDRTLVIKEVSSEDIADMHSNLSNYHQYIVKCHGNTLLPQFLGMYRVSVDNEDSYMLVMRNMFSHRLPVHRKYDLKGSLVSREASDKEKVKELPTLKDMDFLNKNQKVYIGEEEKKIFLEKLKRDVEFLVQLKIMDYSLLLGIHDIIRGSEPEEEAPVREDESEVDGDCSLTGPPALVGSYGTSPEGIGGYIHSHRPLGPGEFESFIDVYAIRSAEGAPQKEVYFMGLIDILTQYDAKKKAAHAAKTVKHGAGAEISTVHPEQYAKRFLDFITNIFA
TRAF2 and NCK-interacting protein kinase (Homo sapiens), sequence (Q9UKE5 whole entry, looked up): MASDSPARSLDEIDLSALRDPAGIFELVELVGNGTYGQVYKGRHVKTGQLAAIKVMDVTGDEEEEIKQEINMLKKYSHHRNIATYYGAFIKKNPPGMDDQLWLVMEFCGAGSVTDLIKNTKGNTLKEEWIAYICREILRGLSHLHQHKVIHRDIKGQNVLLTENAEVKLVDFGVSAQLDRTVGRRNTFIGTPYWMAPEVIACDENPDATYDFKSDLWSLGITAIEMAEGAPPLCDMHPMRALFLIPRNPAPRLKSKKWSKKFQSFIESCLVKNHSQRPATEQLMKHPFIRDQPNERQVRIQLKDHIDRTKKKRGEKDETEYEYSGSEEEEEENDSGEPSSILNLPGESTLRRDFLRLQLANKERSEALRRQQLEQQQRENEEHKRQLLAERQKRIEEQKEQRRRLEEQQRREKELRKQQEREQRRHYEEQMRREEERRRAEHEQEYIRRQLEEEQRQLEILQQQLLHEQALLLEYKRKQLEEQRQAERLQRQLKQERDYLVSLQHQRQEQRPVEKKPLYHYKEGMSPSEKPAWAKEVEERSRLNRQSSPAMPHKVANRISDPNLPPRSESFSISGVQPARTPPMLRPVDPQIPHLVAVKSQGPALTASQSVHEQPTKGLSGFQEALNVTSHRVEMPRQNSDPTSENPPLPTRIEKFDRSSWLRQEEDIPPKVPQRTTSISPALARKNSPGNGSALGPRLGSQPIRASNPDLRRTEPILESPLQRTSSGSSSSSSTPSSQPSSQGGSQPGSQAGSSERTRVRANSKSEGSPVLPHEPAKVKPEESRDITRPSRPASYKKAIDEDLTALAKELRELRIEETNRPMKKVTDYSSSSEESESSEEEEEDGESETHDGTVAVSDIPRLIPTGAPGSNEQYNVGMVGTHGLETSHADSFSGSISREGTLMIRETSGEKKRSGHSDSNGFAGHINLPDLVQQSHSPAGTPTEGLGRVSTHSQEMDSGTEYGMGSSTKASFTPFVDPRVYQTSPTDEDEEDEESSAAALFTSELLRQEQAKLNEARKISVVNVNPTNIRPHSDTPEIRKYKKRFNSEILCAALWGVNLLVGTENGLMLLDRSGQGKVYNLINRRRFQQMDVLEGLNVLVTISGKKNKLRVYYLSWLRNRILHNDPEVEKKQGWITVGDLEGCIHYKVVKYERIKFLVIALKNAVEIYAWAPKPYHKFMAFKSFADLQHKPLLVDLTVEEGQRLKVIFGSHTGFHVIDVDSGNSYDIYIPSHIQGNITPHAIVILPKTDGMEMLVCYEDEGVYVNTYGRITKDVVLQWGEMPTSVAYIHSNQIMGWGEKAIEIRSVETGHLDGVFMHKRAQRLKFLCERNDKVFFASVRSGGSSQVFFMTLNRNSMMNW
Serine/threonine-protein kinase 10 (Homo sapiens), sequence (O94804 whole entry, looked up): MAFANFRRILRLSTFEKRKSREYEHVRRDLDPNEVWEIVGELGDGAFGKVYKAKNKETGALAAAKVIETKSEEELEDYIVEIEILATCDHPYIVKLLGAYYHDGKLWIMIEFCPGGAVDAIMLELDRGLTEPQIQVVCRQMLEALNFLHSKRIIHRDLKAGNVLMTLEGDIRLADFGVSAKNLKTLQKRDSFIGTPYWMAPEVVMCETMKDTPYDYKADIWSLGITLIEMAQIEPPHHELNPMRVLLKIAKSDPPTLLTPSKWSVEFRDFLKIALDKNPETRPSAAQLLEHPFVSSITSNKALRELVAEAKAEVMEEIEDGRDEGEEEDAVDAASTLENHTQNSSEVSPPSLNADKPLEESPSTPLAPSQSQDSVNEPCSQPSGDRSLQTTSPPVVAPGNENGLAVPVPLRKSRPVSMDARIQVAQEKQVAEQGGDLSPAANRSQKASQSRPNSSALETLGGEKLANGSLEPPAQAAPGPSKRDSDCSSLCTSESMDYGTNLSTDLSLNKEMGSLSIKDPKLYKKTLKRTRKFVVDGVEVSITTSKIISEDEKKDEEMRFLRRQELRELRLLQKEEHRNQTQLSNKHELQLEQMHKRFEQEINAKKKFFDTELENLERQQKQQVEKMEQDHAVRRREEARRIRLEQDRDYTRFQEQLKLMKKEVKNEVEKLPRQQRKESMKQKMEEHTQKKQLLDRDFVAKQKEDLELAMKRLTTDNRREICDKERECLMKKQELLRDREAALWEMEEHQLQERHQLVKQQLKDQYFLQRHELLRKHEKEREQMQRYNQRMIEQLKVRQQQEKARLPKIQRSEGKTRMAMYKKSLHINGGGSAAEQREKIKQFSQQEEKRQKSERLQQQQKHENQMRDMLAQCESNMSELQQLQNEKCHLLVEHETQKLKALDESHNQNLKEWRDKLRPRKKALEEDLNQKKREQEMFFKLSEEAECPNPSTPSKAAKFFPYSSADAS
Phosphatidylinositol 4,5-bisphosphate 3-kinase catalytic subunit alpha isoform (Homo sapiens), sequence (P42336 whole entry, canonical isoform): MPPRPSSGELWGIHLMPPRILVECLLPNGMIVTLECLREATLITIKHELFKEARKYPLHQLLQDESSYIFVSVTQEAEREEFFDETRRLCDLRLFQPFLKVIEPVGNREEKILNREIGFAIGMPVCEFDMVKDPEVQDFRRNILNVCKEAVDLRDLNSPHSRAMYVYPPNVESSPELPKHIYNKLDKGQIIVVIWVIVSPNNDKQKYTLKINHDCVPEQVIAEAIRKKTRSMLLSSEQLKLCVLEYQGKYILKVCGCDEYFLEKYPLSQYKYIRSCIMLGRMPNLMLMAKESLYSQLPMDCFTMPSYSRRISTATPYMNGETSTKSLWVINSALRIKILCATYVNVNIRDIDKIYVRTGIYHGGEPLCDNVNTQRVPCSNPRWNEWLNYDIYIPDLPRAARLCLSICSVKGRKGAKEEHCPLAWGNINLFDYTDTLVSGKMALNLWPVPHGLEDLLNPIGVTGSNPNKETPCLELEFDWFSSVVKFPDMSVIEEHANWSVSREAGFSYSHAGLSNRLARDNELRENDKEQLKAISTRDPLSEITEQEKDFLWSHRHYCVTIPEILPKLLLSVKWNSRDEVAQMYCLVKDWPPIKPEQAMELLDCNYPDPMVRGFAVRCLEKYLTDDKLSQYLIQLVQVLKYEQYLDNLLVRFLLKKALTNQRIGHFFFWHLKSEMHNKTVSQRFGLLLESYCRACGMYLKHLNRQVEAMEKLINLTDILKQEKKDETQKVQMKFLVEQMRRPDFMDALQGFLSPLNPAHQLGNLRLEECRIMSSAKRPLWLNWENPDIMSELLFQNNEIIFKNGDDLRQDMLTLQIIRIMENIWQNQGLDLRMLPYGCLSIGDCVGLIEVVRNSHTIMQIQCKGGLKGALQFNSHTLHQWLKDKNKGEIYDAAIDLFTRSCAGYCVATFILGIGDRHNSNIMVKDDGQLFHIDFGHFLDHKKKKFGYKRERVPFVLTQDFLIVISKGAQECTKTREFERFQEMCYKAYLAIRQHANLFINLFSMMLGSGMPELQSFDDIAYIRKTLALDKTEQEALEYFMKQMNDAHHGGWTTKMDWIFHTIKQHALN
Serine/threonine-protein kinase PLK2 (Homo sapiens), sequence (Q9NYY3 whole entry, looked up, the tested form may be a part): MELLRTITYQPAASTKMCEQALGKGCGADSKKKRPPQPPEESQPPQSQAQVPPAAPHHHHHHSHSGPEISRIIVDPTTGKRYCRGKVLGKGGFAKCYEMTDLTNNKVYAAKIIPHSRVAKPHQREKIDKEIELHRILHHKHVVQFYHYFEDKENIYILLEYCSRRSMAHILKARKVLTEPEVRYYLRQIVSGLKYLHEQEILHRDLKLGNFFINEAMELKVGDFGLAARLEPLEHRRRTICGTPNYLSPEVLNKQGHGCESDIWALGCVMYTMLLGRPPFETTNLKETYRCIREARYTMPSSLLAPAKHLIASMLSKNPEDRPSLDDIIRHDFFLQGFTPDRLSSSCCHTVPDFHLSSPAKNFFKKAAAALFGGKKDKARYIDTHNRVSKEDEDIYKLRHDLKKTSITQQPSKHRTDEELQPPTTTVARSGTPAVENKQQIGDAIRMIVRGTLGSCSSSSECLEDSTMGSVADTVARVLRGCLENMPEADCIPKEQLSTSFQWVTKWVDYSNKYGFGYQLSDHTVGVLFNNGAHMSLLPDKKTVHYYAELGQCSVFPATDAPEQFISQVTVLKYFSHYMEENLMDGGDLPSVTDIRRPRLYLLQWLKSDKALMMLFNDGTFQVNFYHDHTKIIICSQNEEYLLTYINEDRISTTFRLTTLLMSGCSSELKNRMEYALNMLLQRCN

C=CC(=O)Nc1cc(-n2c(=O)ccc3cnc4ccc(-c5ccc(NS(C)(=O)=O)cc5)cc4c32)ccc1C
Activity (RV-1 [1]): Active | Activity [2]: 93% | Activity [3]: 97% | GI50 (DU-145): 4.38 µM | Activity [4]: 80% | Activity [5]: 0.83 | Activity (RV-1 [6]): Active | Activity [7]: 85% | Activity (RV-1 [8]): Active | Activity [9]: 74% | Activity [10]: 5.6% | Activity [11]: 87% | Activity [12]: 62% | Activity [13]: 87% | Activity [14]: 79% | Activity [15]: 72% | Activity [16]: 56% | Activity (RV-1 [17]): Active | Activity [18]: 94% | Activity [19]: 64.2% | inhibition [20]: inactive | Activity [21]: 79% | Activity [22]: 4.6% | IC50 (BaF3 [23]): 0.569 µM | GI50 (BaF3 [23]; time 2-5 day): 0.025 µM | Activity [24]: 78% | Activity [25]: 84% | GI50 (BaF3 [26]): 3.64 µM | Activity [27]: 96% | Activity [28]: 45% | Activity [29]: 68% | Activity [30]: 75% | Activity [31]: 83%
